Measurements published in patent US11478445B2, “Method for treating acute myeloid leukemia” (Bionomics Limited, priority 2017, dated 2022).
pIC50: −log10 of the molar value. Entries after “also recorded” stand apart in the source; their conditions may differ.

Assays:
AML cell lines = assay: Cytotoxicity (CellTox Green) and viability/proliferation (CellTiter-Blue) assays; type: cell-based
Protocol: The cell lines were plated in 96-well plates (black with clear flat bottom, Costar, 3603) at 2×10^4 cells/well in 50 uL of respective media, containing 0.1% DMSO and CellTox Green reagent (Promega, G8742) at a final dilution of 1/500. Cells were plated in triplicate wells for each dose being tested. EX 1 was reconstituted immediately prior to use at 10 mM in DMSO. The drug was prepared 2× concentrated in media containing 0.1% DMSO and 50 uL added to respective wells. Fluorescence (485-500 nmEx/520-530 nmEm) was measured at 24 h and 48 h with a FLOUstar OPTIMA plate reader (BMG Labtech). After the cytotoxicity measurement at 48 h, 20 μL of CellTiter-Blue reagent (Promega, G8080) was added to each well and the plate incubated for 1 h at 37° C. before fluorescence (560Ex/590Em) was measured with a FLOUstar OPTIMA plate reader (BMG Labtech).
The first experiment was performed with HL60 and MOLM13 cell lines. Cells were expanded and when numbers were adequate (and viability higher than 90%) they were plated in 96-well plates at 2×10^4 cells/well in 50 uL of their respective media, containing 0.1% DMSO and CellTox Green reagent. Doses tested ranged from 1 μM followed by serial 1/10 dilutions until 10^−5 nM EX 1, or vehicle only. Plates were cultured and fluorescence (indicating cytotoxicity) was measured at 24 h and 48 h. After the cytotoxicity was read at 48 h, CellTiter-Blue reagent was added to each well. The readout of this assay is based on the metabolic activity of cells and it is used as surrogate marker for proliferation and/or cell viability.
The next experiment was performed with the cell lines ME1, OCI-AML3, MV4; 11 and KG1 following the same protocol as above. From the results from the previous experiment it was observed that the non-linear curve fit was very steep between 1 nM and 0.1 nM (FIGS. 1A and B); thus, for this and the subsequent experiments the drug doses were adjusted to: […], 10 nM, 1 nM, 0.75 nM, 0.5 nM, 0.25 nM, 0.1 nM, 0.01 nM and 0.001 nM. […] Cytotoxicity and proliferation (metabolic assay) were measured as above. […]

P-JNK^Thr183/Tyr185 = assay: Western blot for P-JNK in AML cell lines; type: cell-based; settings: all cell lines, 8 h, 10 nM and 100 nM
Protocol: Cells were harvested (4×10^6 for cell lines and 7×10^6 for L-AMLs) and washed 3 times with cold PBS (centrifuged at 4° C.). Lysis buffer was prepared with NP40 Cell Lysis Buffer (ThermoFisher Scientific), cOmplete protease inhibitor (Roche, 046993116001), PhosStop (Roche, 04906837001) and Pefablock (Roche, 11585916001) at the recommended concentrations. After the washes, cells were resuspended in 50 μL of lysis buffer, vortexed and incubated on ice for 30 min. Samples were vortexed every 10 min. After 30 min incubation, samples were centrifuged at 14,000 g at 4° C. for 10 min and supernatants were transferred to tubes. Protein was quantified using the DC Protein Assay kit (BioRad) per manufacturer's protocol. 50 μg of cell lines lysate or 20 μg of L-AML6 lysate were loaded for SDS-PAGE. Protein was transferred from the gels into PVDF membranes using a semi dry transfer apparatus (BioRad). […]
Once it was determined that this group of AML cell lines are highly sensitive to EX 1, the mechanism underlying this response was investigated. […]
Therefore, cells were treated with a range of doses of EX 1 for 8 h and 24 h, as described above, before protein extraction was performed. […] Noxa was readily detected in control lysate prepared from HEK293 cells.

[1] = system: chronic lymphocytic leukaemia (CLL) cells; settings: Bates et al. 2016; cited from earlier work

Structure (SMILES): COc1cc(C(=O)c2c(C)oc3c(O)c(OC)ccc23)cc(OC)c1OC [EX 1, 2-Methyl-7-hydroxy-3-(3,4,5-trimethoxybenzoyl)-6-methoxybenzofuran]
- cytotoxicity and CellTiter response (AML cell lines; less sensitive cell lines ME1, OCI-AML3 and KG1): showed a lower cytotoxicity response
- cytotoxicity and inhibitory proliferation response (AML cell lines; more sensitive cell lines HL60, MOLM13 and MV4;11): reached the highest cytotoxicity and showed the largest inhibitory proliferation response
- pIC50 (AML cell lines; range over six AML cell lines (MV4;11, MOLM13, HL60, KG1, ME1, OCI-AML3), 48 h, FIGS. 1A and B, read-out: IC50 doses (cytotoxicity and viability)): 8.89 to 9.70
- P-JNK induction (P-JNK^Thr183/Tyr185): strongly induced in all cell lines; also recorded: induced in all cell lines
- apoptosis via P-JNK and Noxa [1]: induce apoptosis
